Test results taken from patent publication US20140357706A1, “Stearate Compounds” (THE UAB RESEARCH FOUNDATION, priority 2011, published 2014).

Key:
[1] = test system: lung metastatic tumors; assay: Immunohistochemistry of lung metastatic tumors (CD31, Ki67, caspase-3), experiment 2; type: in vivo, mice
Description: Paraffin sections were prepared as described previously (21). 5 μm thick sections were cut from the formalin fixed, paraffin embedded tissue blocks and floated onto charged glass slides (Super-Frost Plus, Fisher Scientific, Pittsburgh, Pa.) and dried overnight at 60° C. A hemotoxylin and eosin stained section was obtained from each tissue block. All sections for immunohistochemistry were deparaffinized and hydrated using graded concentrations of ethanol to deionized water.
CD31 immunostaining was done as described previously^(21). Briefly, the tissue sections were subjected to pretreatment with 0.5 M tris buffer (pH 10). All sections were washed gently in deionized water, then transferred in to 0.05 M Tris-based solution in 0.15 M NaCl with 0.1% v/v Triton-X-100, pH 7.6 (TBST). Endogenous peroxidase was blocked with 3% hydrogen peroxide for 10 min. To reduce further nonspecific background staining, slides were incubated with avidin (Jackson ImmunoResearch, West Grove, Pa.) and biotin blocking solutions (Sigma, to St. Louis, Mo.) for 15 min each, and 3% normal goat serum (Sigma, St. Louis, Mo.) for 20 min. All slides were then incubated at 4° C. overnight with rabbit polyclonal antibody against CD31 (1:200 dilution) (Abeam, Cambridge, Mass.). […]
Bioquant® Image Analysis software (Rtm Biometrics, Nashville, Tenn.) was used to evaluate the immunostaining. […] The numbers of positive and negative cells in these hot spots were then counted and averaged at 5 magnification X40. The percentage of cells stained with Ki67 or caspase-3 was subsequently calculated for comparison. For CD31 immunostaining, the MVD was measured based on Weidner's method (37). […] The number of microvessels in these hot spots was counted at magnification X40, and the density was then calculated for comparison. Each positive endothelial cell cluster of immunoreactivity was counted as an individual vessel in addition to the morphologically identifiable vessels with a lumen.

[2] = test system: MDA-MB-435 human breast cancer cells; assay: MDA-MB-435 lung metastasis model, experiment 2 (diet started with chemotherapy after surgery); type: in vivo, mice
Description: 3-4 week old female athymic mice were purchased from Harlan Sprague Dawley, Inc. (Indianapolis, Ind.) and were maintained in microisolater cages in pathogen-free facilities. […] The diets were prepared by Harlan-Teklad (Madison, Wis.). The animals were fed ad libitum and the amount of food consumed was recorded. Mice were anesthetized with 3% isoflurane in 2.5% O2 and weighed weekly. All in vivo procedures were approved by the Institutional Animal Care and Use Committee (IACUC), University of Alabama at Birmingham (UAB).
MDA-MB-435 human breast cancer cells (obtained from Dr. Dan Welch; UAB) were grown and maintained in DMEM:F12 supplemented with 5% FBS, 2 mM glutamine, 1 mM sodium pyruvate, 0.2× non-essential amino acids and 1% penicillin/streptomycin (5% CO2). Cells were grown to 80-90% confluence prior to preparation for injection. To detach cells from the plates, cells were washed with PBS and then treated with 3 mM versene. […]
Lungs were placed under the dissecting microscope (Fisher Scientific, Hanover Park, Ill.) for measurement of metastatic tumor size. Tumor size is expressed as an average of the longest and shortest diameter. The tumors were split into three groups according to their sizes (<0.1 cm, small tumor; 0.1-0.2 cm, medium tumor; >0.2 cm, large tumor), and the number of tumors per mouse was counted separately.

CC(=O)O[C@H]1C(=O)[C@@]2(C)[C@H]([C@H](OC(=O)c3ccccc3)[C@]3(O)C[C@H](OC(=O)[C@H](O)[C@@H](NC(=O)c4ccccc4)c4ccccc4)C(C)=C1C3(C)C)[C@]1(OC(C)=O)CO[C@@H]1C[C@@H]2O [paclitaxel]
Caspase-3 positive cells ([1]; compared to control diet group): significantly increased | Percentage of Ki67 positive cells (proliferation) ([1]; two-way ANOVA): significantly inhibited | Microvessel density (MVD), CD31 ([1]; two-way ANOVA, PTX VS. no PTX, diet VS. control diet group): decreased the MVD significantly | Incidence of lung metastases ([2]; PTX vs same diet without PTX, p<0.01, about 20 mg/kg i.p.): significantly lower | Number of lung metastases ([2]; two-way ANOVA, PTX VS. no PTX, diet VS. control diet): significantly reduced
